Read-outs that look alike come from different tables or passages of the source.
Experiments:
HMVEC-d cells = assay: Cell migration assay (modified Boyden chamber); assay type: cell-based, Human
Protocol: The motility response of HMVEC-d cells was assayed using a modified Boyden chamber. Cells were plated in T75-cm^2 flasks at 0.5×10^6 cells per flask and allowed to grow for 48 hours (˜70% confluent) prior to the migration assay. To facilitate cell adhesion, the upper membrane of a transwell (8 μm pore; Costar) was coated with fibronectin (10 μg/ml; Becton Dickinson) overnight at 4° C. Coated membranes were rinsed with PBS and allowed to air dry immediately before use. Cells were detached by trypsinization, treated with trypsinization neutralization solution (Clonetics), and resuspended at a final concentration of […] in serum-free EBM-2 containing 0.1% BSA or free or conjugated TNP470 at equivalent concentrations of 1 ng/ml. Cells (50,000 in 100 μl) were added to the upper chamber of the transwell. Following a 2 hours incubation, EBM-2 or EBM-2 supplemented with VPF/VEGF (5 ng/ml) was added to the lower chamber and cells were allowed to migrate toward the bottom chamber for 4 hours in a humidified incubator containing 5% CO2. […] The number of migrated cells was measured using microscopy (three fields from each membrane were captured using a 10× objective), and images were captured with a CCD camera using SPOT software. Total migration per membrane was quantified from the captured images using Scion Image software (National Institutes of Health). […]

MAPK = assay: Phosphorylation of MAPK; assay type: cell-based, Human; details: HMVEC-d
Protocol: Serum-starved HMVEC-d were treated with 5 ng/ml TNP-470 at 37° C. for 2 hours, and then stimulated with 10 ng/ml of VEGF for 5 minutes. Stimulation was stopped by adding cold PBS. Cells were lysed with cold radioimmune precipitation buffer. Cellular extracts (20 μg) were immunoblotted with an antibody against phosphorylated MAPK (p-MAPK) (Cell Signaling Technology Inc.). The blot was stripped and reprobed with an antibody against MAPK to confirm equal protein loading.

liver regeneration = assay: Liver regeneration after 2/3 hepatectomy; assay type: in vivo, C57 black male mice; details: post-operative day 8
Protocol: C57 black male mice underwent a ⅔ hepatectomy through a midline incision after general anesthesia with isoflourane. Free and conjugated TNP-470 (30 mg/kg) was given s.c. every other day for 8 days beginning on the day of surgery. The liver was harvested on the 8th day, weighed and analyzed for histology.

[1] = system: IL-2-induced pulmonary edema; assay: IL-2 associated pulmonary edema; assay type: in vivo, C57B1/6J male mice
Protocol: C57B1/6J male mice were injected with TNP-470 (30 mg/kg daily) or saline subcutaneously (s.c.) for three days. Then mice were injected with IL-2 (1.2×106 units/100 μl) or saline intraperitoneally (i.p.) 3 times a day for 5 days. At termination mice were euthanized and lungs were dissected, weighed, fixed and processed for H & E staining.

RhoA = RhoA activation assay; assay type: cell-based, Human; details: HMVEC-d
Protocol: • pGST-TRBD bacteria were grown and induced with isopropyl-thiogalactoside. The bacterial suspensions were divided into 50 ml aliquots and then harvested and frozen at −80° C. To prepare the GST-TRBD beads, each aliquot of frozen bacteria was resuspended in 2 ml of cold PBS, and then 20 μl of 1 M dithiothreitol (DTT), 20 μl of 0.2 M PMSF, and 40 μl of 50 mg/ml lysozyme were added. The sample was incubated on ice for 30 minutes. Next, 225 μL of 10% Triton X-100, 22.5 μL of IM MgCl2, 22.5 μl of 2000 KU/ml DNAse were added and the sample was incubated on ice for another 30 min. The supernatant was collected and incubated with 100 μl glutathione-coupled Sepharose 4B beads (Pharmacia Biotech) at 4° C. for 45 minutes. The beads were then washed with bead washing buffer (PBS with 10 mM DTT and 1% Triton X-100) and resuspended in the same buffer to give a 50% bead slurry.
Meanwhile, 24 hours serum-starved HMVEC-d cells were treated with 5 ng/ml TNP-470 at 37° C. for 2 hours, and then stimulated with 10 ng/ml of VEGF, PAF (10 nM), or histamine ([…]) for 5 minutes. Stimulation was stopped by adding cold PBS. Cells were lysed with lysis buffer (150 mM NaCl, 0.8 mM MgCl2, 5 mM EGTA, 1% IGEPAL, 50 mM HEPES, pH 7.5, 1 mM PMSF, 10 μg/ml leupeptin, and 10 μg/ml aprotinin). The supernatant was isolated and incubated with 50 μl of GST-TRBD beads at 4° C. for 45 minutes. Protein bound to beads was washed with AP wash buffer (50 mM Tris-HCl, pH 7.2, 1% Triton X-100, 150 mM NaCl, 10 mM MgCl2, 1 mM PMSF, 10 μg/ml leupeptin, and 10 μg/ml aprotinin) and analyzed by SDS-PAGE with an antibody against RhoA (Santa Cruz Biotechnology, CA).

[2] = system: VEGF-induced skin permeability; assay: Modified Miles assay with VEGF dose response; assay type: in vivo, C57 mice; details: 30 mg/kg/d s.c. for 3 days, intradermal VEGF
Source text: TNP-470, HPMA copolymer-TNP-470 and angiostatin all inhibited Evan's blue extravasation into A2058 melanoma (P<0.03 versus control), murine Lewis lung carcinoma (P<0.05), MCF-7 breast carcinoma (P<0.04), MDA-MB-231 breast carcinoma (P<0.05) and BXPC3 pancreatic adenocarcinoma (P<0.04) by 40-90% compared to control tumors treated with saline (FIG. 16B). […] In order to test the effect of VEGF secreted from the tumor and the ability of TNP-470 to inhibit the permeability induced by such amount of VEGF, a modified Miles assay using a dose response of VEGF was used. Groups of 8 week old C57 mice were treated with TNP-470 (30 mg/kg/d s.c. for 3 days) or with saline. Then we injected 100 μl 1% Evan's Blue i.v. and after 10 min injected VEGF intradermally at different concentrations. We collected skin punch biopsies and extracted dye with formamide at RT over 5 days and read the extracts at 620 nm (FIG. 16C).

[3] = system: LLC, A2058, MCF-7, MDA-MB-231, BXPC3, U87 tumors; details: cited from earlier work

CO[C@@H]1[C@H](OC(=O)NC(=O)CCl)CC[C@]2(CO2)[C@H]1[C@@]1(C)O[C@@H]1CC=C(C)C [TNP-470]
inhibition at 0.001 µg/mL (HMVEC-d cells; Homo sapiens, 1 ng/ml, 2 hours pretreatment, 4 hours migration, read-out: inhibition of chemotactic migration response to VPF/VEGF): 68%
inhibition of basal migration (HMVEC-d cells; absence of VPF/VEGF): 70%
VPF/VEGF-induced MAPK phosphorylation (MAPK): inhibited
average liver size (liver regeneration): 0.7 g
total body weight ([1]; 3 days treatment): did not affect total body weight
lung pathological features (congestion, edema, fibrin deposition, mononuclear infiltrate) ([1]; IL-2 treated mice): greatly reduced
lung weight ([1]; mice treated with both IL-2 and TNP-470): 170.2 ± 10.1 mg
PAF-induced RhoA activation (RhoA): inhibited
VPF/VEGF-induced RhoA activation (RhoA): significantly suppressed
histamine-induced RhoA activation (RhoA): inhibited
VEGF dose up to which permeability was inhibited [2]: up to 25 ng
tumor growth inhibition ([3]; U87 glioblastoma in mice): 95%
tumor growth inhibition ([3]; all tumor models studied): 60-95%

From patent US20050203013A1, “Methods for inhibiting vascular permeability” (priority 2002, published 2005)
